# Measurements from US20240269139A1, “COMPOUNDS FOR TARGETED PROTEIN DEGRADATION OF KINASES” (DANA-FARBER CANCER INSTITUTE, INC., priority 2020, published 2024).
# Like-named read-outs stand apart in the source and are kept apart here.
# How the values were obtained:
# [1] = system: extended human kinome (kinase-like proteins); assay: Whole cell quantitative proteomics: extended kinome hits; details: Accession Q16875-4; experiment wp117
# [2] = assay type: cell-based, H. sapiens; details: MOLT-4, 1 μM, 5 h, 5 μM CB-5083
# [3] = molecular target: T1, protein kinases (human kinome) (Homo sapiens, UniProt Q9H2K8); assay type: cell-based; details: for logFC: TAOK3 (Q9H2K8); for logFC TAOK3 (Q9H2K8): direction of change down
# T1 sequence (Q9H2K8 1-898): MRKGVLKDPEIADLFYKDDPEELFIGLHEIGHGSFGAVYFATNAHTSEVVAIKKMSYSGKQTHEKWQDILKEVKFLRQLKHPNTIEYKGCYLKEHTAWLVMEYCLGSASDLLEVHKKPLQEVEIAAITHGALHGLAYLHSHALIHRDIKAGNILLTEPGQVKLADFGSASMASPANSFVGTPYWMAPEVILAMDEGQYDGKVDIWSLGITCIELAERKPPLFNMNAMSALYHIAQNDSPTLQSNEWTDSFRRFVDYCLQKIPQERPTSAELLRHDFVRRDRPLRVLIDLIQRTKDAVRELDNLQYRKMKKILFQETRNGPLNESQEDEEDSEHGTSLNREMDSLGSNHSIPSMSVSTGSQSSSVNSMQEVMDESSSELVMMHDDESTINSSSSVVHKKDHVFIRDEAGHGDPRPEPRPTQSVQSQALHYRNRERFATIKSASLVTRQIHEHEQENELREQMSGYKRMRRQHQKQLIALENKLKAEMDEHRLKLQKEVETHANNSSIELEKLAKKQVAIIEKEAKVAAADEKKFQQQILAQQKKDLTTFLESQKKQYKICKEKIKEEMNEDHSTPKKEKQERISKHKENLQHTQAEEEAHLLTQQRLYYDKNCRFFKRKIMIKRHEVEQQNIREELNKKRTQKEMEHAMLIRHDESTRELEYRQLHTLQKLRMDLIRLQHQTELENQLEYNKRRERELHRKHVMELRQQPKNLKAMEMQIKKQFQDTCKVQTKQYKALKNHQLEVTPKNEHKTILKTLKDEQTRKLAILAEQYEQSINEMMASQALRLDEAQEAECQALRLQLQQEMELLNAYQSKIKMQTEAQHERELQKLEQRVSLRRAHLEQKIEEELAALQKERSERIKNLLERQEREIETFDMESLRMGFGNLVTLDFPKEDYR
# [4] = molecular target: extended human kinome (kinase-like proteins) (Homo sapiens, UniProt Q9NYY8); assay: Whole cell quantitative proteomics: extended kinome hits; details: Accession Q9NYY8; experiment wp160; 1 hr
# Chain of extended human kinome (kinase-like proteins) (Homo sapiens, UniProt Q9NYY8) (Q9NYY8 whole entry): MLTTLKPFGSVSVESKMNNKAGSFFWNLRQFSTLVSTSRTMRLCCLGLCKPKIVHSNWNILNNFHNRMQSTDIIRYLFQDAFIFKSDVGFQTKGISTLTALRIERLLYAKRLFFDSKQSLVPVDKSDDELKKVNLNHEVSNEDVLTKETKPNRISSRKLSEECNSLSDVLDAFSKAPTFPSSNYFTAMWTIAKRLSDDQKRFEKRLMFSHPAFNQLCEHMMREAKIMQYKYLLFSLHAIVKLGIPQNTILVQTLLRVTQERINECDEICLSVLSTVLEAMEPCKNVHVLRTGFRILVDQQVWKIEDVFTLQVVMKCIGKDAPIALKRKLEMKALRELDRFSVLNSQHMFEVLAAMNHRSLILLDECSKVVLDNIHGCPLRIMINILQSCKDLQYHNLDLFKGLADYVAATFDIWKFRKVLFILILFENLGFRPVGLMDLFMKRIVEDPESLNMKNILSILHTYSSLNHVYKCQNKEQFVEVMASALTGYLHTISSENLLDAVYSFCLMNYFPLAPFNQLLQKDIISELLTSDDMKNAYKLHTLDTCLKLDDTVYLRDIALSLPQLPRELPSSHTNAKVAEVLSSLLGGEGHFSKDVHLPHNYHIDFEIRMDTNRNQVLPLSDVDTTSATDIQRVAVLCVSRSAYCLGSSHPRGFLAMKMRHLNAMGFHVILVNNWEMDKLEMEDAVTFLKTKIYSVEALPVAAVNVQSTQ
compound,measurement,setting,value
"Cc1ccc(NC(=O)c2cccc(C(F)(F)F)c2)cc1N1Cc2cnc(Nc3ccc(N4CCN(Cc5cn(CCCCCOc6cccc7c6C(=O)N(C6CCC(=O)NC6=O)C7=O)nn5)CC4)nc3)nc2N(C)C1=O (stereo not shown) [DB0646, N-(3-(7-((6-(4-((1-(5-((2-(2,6-Dioxopiperidin-3-yl)-1,3-dioxoisoindolin-4-yl)oxy)pentyl)-1H-1,2,3-triazol-4-yl)methyl)piperazin-1-v)pyridin-3-yl)amino)-1-methyl-2-oxo-1,4-dihydropyrimido[4,5-d]pyrimidin-3(2H)-yl)-4-methylphenyl)-3-(trifluoromethyl)benzamide]",logFC PFKFB3,[1],−0.377
same,CSK degradation rescue on p97 inhibition,[2],very little degradation rescue
Cc1ccc(C(=O)Nc2ccc(CN3CCN(CCCOCCOCCOCCNC(=O)COc4cccc5c4C(=O)N(C4CCC(=O)NC4=O)C5=O)CC3)c(C(F)(F)F)c2)cc1C#Cc1cnc2cccnn12 (stereo not shown) [SB1.G.187],logFC,[3]; experiment wp103,−0.3727
same,logFC,[3]; experiment wp107,−0.3858
same,logFC TAOK3 (Q9H2K8),[3]; experiment wp103,−0.3727
same,logFC TAOK3 (Q9H2K8),[3]; experiment wp107,−0.3858
CC(C)S(=O)(=O)c1ccccc1Nc1nc(Nc2ccc(N3CCN(CCOCCNC(=O)CNc4cccc5c4C(=O)N(C4CCC(=O)NC4=O)C5=O)CC3)cc2)ncc1Cl (stereo not shown) [SK.3.91],logFC FASTKD2,[4],−1
